Source: patent EP1311531B1, “STEROID DERIVED ANTIBIOTICS” (Brigham Young University, priority 2000, dated 2002)
≈ marks a conversion by molar mass, not a printed value. Like-named read-outs stand apart in the source and are kept apart here.

Legend:
[1] = test system: E. coli (ATCC 10798); experiment: MIC and MBC measurement; type: cell-based, Escherichia coli
Procedure: (§1) General: Microorganisms. Reference strains were purchased from the American Type Culture Collection (Rockville, MD) or Bactrol disks from Difeo Laboratories (Detroit, MI). […] Bacterial strains were maintained on Mueller-Hinton agar plates, and Candida albicans was maintained on Sabouraud Dextrose agar plates.
(§2) Aliquots (20 mL) of the homogeneous solution were then poured in sterile plastic petri dishes (100 x 15 mm, Fisher Scientific). Solutions of compounds were made by dissolving the HCl salt of the respective compound into an appropriate amount of deionized and sterilized water followed by microfiltration.
(§3) Aliquots of 1 mL of the suspension were added to test tubes containing 1 mL TSB and incrementally varied concentrations of cholic acid derivatives and/or erythromycin or novobiocin. […] Additionally, an alliquot from each of the samples showing no measurable turbidity was subcultured on TSA plates (alliquots were diluted to provide fewer than 300 CFU). Colonies that grew on the subculture after overnight incubation were counted and the number of CFU/mL in the samples were calculated. The calculated values were compared to the number of CFU/mL in the original inoculum.

[2] = test system: Candida albicans ATCC 90028; experiment: MIC and MBC measurement; type: cell-based; conditions: ATCC90028, Table 10
Procedure: as §1, §2, §3

[3] = test system: Klebsiella pneumonia ATCC 13883; experiment: MIC and MBC measurement; type: cell-based; conditions: Klebsiella pneumoniae, ATCC13883
Procedure: as §1, §2, §3

[4] = test system: Pseudomonas aeruginosa ATCC 27853; experiment: MIC and MBC measurement; type: cell-based
Procedure: as §1, §2, §3

[5] = test system: Salmonella typhimurium ATCC 14028; experiment: MIC and MBC measurement; type: cell-based; conditions: Salmonella enterica
Procedure: as §1, §2, §3

[6] = test system: Streptococcus pyogenes ATCC 19615; experiment: MIC and MBC measurement; type: cell-based; conditions: ATCC19615, Table 10
Procedure: as §1, §2, §3

[7] = test system: Enterococcus faeculis ATCC 29212; experiment: MIC and MBC measurement; type: cell-based, Enterococcus faecalis; conditions: ATCC29212
Procedure: as §1, §2, §3

[8] = test system: Salmonella typhimurium ATCC 14028; experiment: Sensitization to erythromycin, novobiocin or rifampicin (permeabilization, FIC); type: cell-based; conditions: Table 13; with rifampicin (order of b151); Salmonella typhimurium ATCC 14028^b (footnote b not given)
[9] = test system: outer membrane of Gram-negative bacteria; experiment: Luciferin/luciferase luminescence assay of membrane permeabilization; type: cell-based, E. coli; conditions: Escherichia coli; permeabilization of the outer membrane allowing luciferin to enter the cell; read-out: half maximum luminescence
Procedure: Using a technique described by J. M. Shupp, S. E. Travis, L. B. Price, R. F. Shand, P. Keim, RAPID BACTERIAL PERMEABILIZATION REAGENT USEFUL FOR ENZYME ASSAYS, Biotechniques, 1995, vol.
In this assay, E. coli containing an inducible luciferase coding plasmid was incubated with the inducing agent […], then treated with a lysis buffer containing either PMB or one of the cholic acid derivatives, and Triton X-100. Luciferin and ATP were then added. […] The concentrations of the membrane disrupting agents (PMB and the cholic acid derivatives) were varied, and the resulting luminescence was measured.

[10] = ATCC10798, Table 9, Escherichia coli (ATCC 10798), read-out: MBC
[11] = ATCC10798, Table 9, Escherichia coli (ATCC 10798), read-out: MIC
[12] = ATCC27853, Table 10, Pseudomonas aeruginosa ATCC 27853
[13] = Escherichia coli, ATCC10798, Table 1, E. coli (ATCC 10798), read-out: MBC
[14] = Escherichia coli, ATCC10798, Table 1, E. coli (ATCC 10798), read-out: MIC
[15] = ATCC27853, Table 6, P. aureginosa (ATCC 27853)
[16] = Table 9, Escherichia coli (ATCC 10798)

C[C@]12CC[C@@H](OCCCN)C[C@H]1C[C@@H](OCCCN)[C@@H]1[C@@H]2C[C@H](OCCCN)[C@]2(C)[C@@H](O)CC[C@@H]12 [Compound 106]
MBC [1, 10]: > 200 µg/mL | MIC [1, 11]: 140 µg/mL (≈ 282 µM) | MBC [2]: 92 µg/mL (≈ 186 µM) | MIC [2]: 75 µg/mL (≈ 151 µM) | MBC [3]: 100 µg/mL (≈ 202 µM) | MIC [3]: > 100 µg/mL | MBC [4, 12]: 97 µg/mL (≈ 196 µM) | MIC [4, 12]: 85 µg/mL (≈ 171 µM) | MBC [5]: > 100 µg/mL | MIC [5]: > 100 µg/mL | MBC [6]: 37 µg/mL (≈ 74.6 µM) | MIC [6]: 18 µg/mL (≈ 36.3 µM) | MBC [7]: > 100 µg/mL | MIC [7]: 12 µg/mL (≈ 24.2 µM) | FIC [8]: 0.064 | concentration required for bacterial growth inhibition [8]: 1.4 µg/mL

CCCOCCC[C@@H](C)[C@H]1CC[C@H]2[C@@H]3[C@H](OCCCN)C[C@@H]4C[C@H](OCCCN)CC[C@]4(C)[C@H]3C[C@H](OCCCN)[C@]12C [Compound 112]
MBC [1, 10]: 17 µg/mL (≈ 28 µM) | MIC [1, 11]: 12 µg/mL (≈ 19.7 µM) | MBC [2]: 45 µg/mL (≈ 74 µM) | MIC [2]: 41 µg/mL (≈ 67.4 µM) | MBC [3]: 27 µg/mL (≈ 44.4 µM) | MIC [3]: 23 µg/mL (≈ 37.8 µM) | MBC [4, 12]: 6.4 µg/mL (≈ 10.5 µM) | MIC [4, 12]: 4.6 µg/mL (≈ 7.57 µM) | MBC [5]: 90 µg/mL (≈ 148 µM) | MIC [5]: 86 µg/mL (≈ 141 µM) | MBC [6]: 3 µg/mL (≈ 4.93 µM) | MIC [6]: 2.4 µg/mL (≈ 3.95 µM) | MBC [7]: 4.7 µg/mL (≈ 7.73 µM) | MIC [7]: 3.1 µg/mL (≈ 5.1 µM) | FIC [8]: 0.051 | concentration required for bacterial growth inhibition [8]: 0.10 µg/mL

C[C@H](CCCN(C)Cc1ccccc1)[C@H]1CC[C@H]2[C@@H]3[C@H](OCCN)C[C@@H]4C[C@H](OCCN)CC[C@]4(C)[C@H]3C[C@H](OCCN)[C@]12C [Compound 1]
MBC [1, 13]: 34 µg/mL (≈ 54.2 µM) | MIC [1, 14]: 20 µg/mL (≈ 31.9 µM) | MBC [2]: > 50 µg/mL | MIC [2]: 49 µg/mL (≈ 78.2 µM) | MBC [3]: > 36 µg/mL | MIC [3]: 24 µg/mL (≈ 38.3 µM) | MBC [4, 15]: > 50 µg/mL | MIC [4, 15]: 15 µg/mL (≈ 23.9 µM) | MBC [4, 12]: 38 µg/mL (≈ 60.6 µM) | MIC [4, 12]: 26 µg/mL (≈ 41.5 µM) | MBC [5]: > 25 µg/mL | MIC [5]: 21 µg/mL (≈ 33.5 µM) | MBC [6]: 4.4 µg/mL (≈ 7.02 µM) | MIC [6]: 3 µg/mL (≈ 4.78 µM) | MBC [7]: 50 µg/mL (≈ 79.7 µM) | MIC [7]: 4.9 µg/mL (≈ 7.82 µM) | FIC [8]: 0.089 | concentration required for bacterial growth inhibition [8]: 0.84 µg/mL

C[C@H](CCCN(C)Cc1ccccc1)[C@H]1CC[C@H]2[C@@H]3[C@H](OCCCNC(=N)N)C[C@@H]4C[C@H](OCCCNC(=N)N)CC[C@]4(C)[C@H]3C[C@H](OCCCNC(=N)N)[C@]12C [Compound 5]
MBC [1, 13]: 4 µg/mL (≈ 5.03 µM) | MIC [1, 14]: 2 µg/mL (≈ 2.52 µM) | MBC [2]: 50 µg/mL (≈ 62.9 µM) | MIC [2]: 11 µg/mL (≈ 13.8 µM) | MBC [3]: 6.7 µg/mL (≈ 8.43 µM) | MIC [3]: 3 µg/mL (≈ 3.77 µM) | MBC [4, 15]: 15 µg/mL (≈ 18.9 µM) | MIC [4, 15]: 6 µg/mL (≈ 7.55 µM) | MBC [4, 12]: 9.9 µg/mL (≈ 12.5 µM) | MIC [4, 12]: 5.9 µg/mL (≈ 7.42 µM) | MBC [5]: 3.8 µg/mL (≈ 4.78 µM) | MIC [5]: 2.2 µg/mL (≈ 2.77 µM) | MBC [6]: 2.1 µg/mL (≈ 2.64 µM) | MIC [6]: 2 µg/mL (≈ 2.52 µM) | MBC [7]: 16 µg/mL (≈ 20.1 µM) | MIC [7]: 2.2 µg/mL (≈ 2.77 µM)

C[C@H](CCCN(C)Cc1ccccc1)[C@H]1CC[C@H]2[C@@H]3[C@H](OCCCN)C[C@@H]4C[C@H](OCCCN)CC[C@]4(C)[C@H]3C[C@H](OCCCN)[C@]12C [Compound 2]
MBC [1, 13]: 16 µg/mL (≈ 23.9 µM) | MIC [1, 14]: 7 µg/mL (≈ 10.5 µM) | MBC [2]: 42 µg/mL (≈ 62.8 µM) | MIC [2]: 30 µg/mL (≈ 44.8 µM) | MBC [3]: 17 µg/mL (≈ 25.4 µM) | MIC [3]: 14 µg/mL (≈ 20.9 µM) | MBC [4, 15]: 40 µg/mL (≈ 59.8 µM) | MIC [4, 15]: 9 µg/mL (≈ 13.5 µM) | MBC [4, 12]: > 17 µg/mL | MIC [4, 12]: 11 µg/mL (≈ 16.4 µM) | MBC [5]: 16 µg/mL (≈ 23.9 µM) | MIC [5]: 13 µg/mL (≈ 19.4 µM) | MBC [6]: 2.3 µg/mL (≈ 3.44 µM) | MIC [6]: 2 µg/mL (≈ 2.99 µM) | MBC [7]: 19 µg/mL (≈ 28.4 µM) | MIC [7]: 3.4 µg/mL (≈ 5.08 µM) | EC50 [9]: 7 µg/mL (≈ 10.5 µM) | FIC [8]: 0.079 | concentration required for bacterial growth inhibition [8]: 0.39 µg/mL

C[C@H](CCCO)[C@H]1CC[C@H]2[C@@H]3[C@H](OCCCN)C[C@@H]4C[C@H](OCCCN)CC[C@]4(C)[C@H]3C[C@H](OCCCN)[C@]12C [Compound 10]
MBC [1, 13]: 60 µg/mL (≈ 106 µM) | MIC [1, 14]: 36 µg/mL (≈ 63.6 µM) | MBC [1, 16]: 60 µg/mL (≈ 106 µM) | MIC [1, 16]: 36 µg/mL (≈ 63.6 µM) | MBC [2]: 29 µg/mL (≈ 51.2 µM) | MIC [2]: 14 µg/mL (≈ 24.7 µM) | MBC [3]: 50 µg/mL (≈ 88.4 µM) | MIC [3]: 47 µg/mL (≈ 83.1 µM) | MIC [4, 15]: 23 µg/mL (≈ 40.6 µM) | MBC [4, 12]: 36 µg/mL (≈ 63.6 µM) | MIC [4, 12]: 21 µg/mL (≈ 37.1 µM) | MBC [5]: > 17 µg/mL | MIC [5]: 43 µg/mL (≈ 76 µM) | MBC [6]: 5.8 µg/mL (≈ 10.2 µM) | MIC [6]: 4.2 µg/mL (≈ 7.42 µM) | MBC [7]: 19 µg/mL (≈ 33.6 µM) | MIC [7]: 3.3 µg/mL (≈ 5.83 µM) | EC50 [9]: 33 µg/mL (≈ 58.3 µM) | FIC [8]: 0.063 | concentration required for bacterial growth inhibition [8]: 0.55 µg/mL
